Usually half-life stands for the time needed for the level to fall by half in the phase considered. One may read the microsomal CLint as the rate of metabolic loss divided by the concentration.

What all share (assay type): in vitro ADME
The target in one series is T1, rCYP2D6 (Homo sapiens, UniProt P10635).
T1 construct: purchased Cypex, Ltd; host or cells: Escherichia coli
The series can be described thus: Reaction phenotyping with rCYP2D6. The following applies: rCYP2D6, 60 min. How it is done:
For FFA and nFFA reaction phenotyping experiments, LC‐MS/MS experiments were performed using an API 4000 QTRAP or QTRAP 5500 mass spectrometer (SCIEX) with positive electrospray ionization. Chromatography was performed using an Atlantis dC18 analytical column (100 × 2.1 mm, 5 µm; Waters Corporation). Mobile phases were 0.2% v/v formic acid in water and 0.2% v/v formic acid in methanol. FFA and nFFA were eluted at a flow rate of 0.5 mL/min with a linear gradient of 40%−95% methanol from 0.20−2.1 min. The mass transitions monitored were 232.0>109.0 for FFA, 204.0>159.0 for nFFA, 348.0>330.0 for 1’‐hydroxymidazolam‐d4 internal standard (FFA reaction phenotyping), and 262.0>244.0 for hydroxybupropion‐d6 internal standard (nFFA reaction phenotyping). Analyst Instrument Control and Data Processing software (v. 1.6.1) was used for collecting and integrating data (SCIEX). Calibration curves ranging from 1.25 µM−0.01 µM were used to quantify nFFA. Relative quantitation was used to approximate the amount of FFA test material used.
Methods used to evaluate the role of CYP450s in the metabolism of FFA have been described.[22], [23], [24] […] Supernatant fractions were analyzed by LC‐MS/MS.

Series [1] in a line: Metabolic stability and metabolite identity, human liver S9 fractions. As for the experimental part:
(§1) LC‐MS/MS analyses to assess metabolic stability and identify the transporter substrate were performed using an API 4000 QTRAP mass spectrometer (SCIEX, Framingham, MA) with electrospray ionization in positive mode. Chromatography was performed using an Atlantis dC18 analytical column (100 × 2.1 mm, 5 µm; Waters Corporation, Milford, MA). Mobile phases were 0.2% v/v formic acid in water and 0.2% v/v formic acid in acetonitrile. For metabolic stability experiments, FFA and metabolites were eluted at a flow rate of 0.6 mL/min, with a linear gradient of 20%−80% acetonitrile from 0.30−2.0 min. For transporter substrate experiments, the gradient was slightly modified to achieve suitable chromatography. The mass transitions monitored were 232.0 > 159.0 for FFA and 348.0 > 330.0 for 1ʹ‐OH‐midazolam‐d4 internal standard.
For metabolic characterization experiments, LC‐MS/MS analyses were performed using an Acquity Ultra Performance Liquid Chromatography system with an in‐line photodiode array detector and ethylene bridged hybrid C18 columns (2.1 × 100 mm, 1.7 µm; Waters Corporation) coupled to a Synapt G2 HDMS QTOF (Waters Corporation). Mobile phases were 0.1% v/v formic acid in water and 0.1% v/v formic acid in methanol. FFA and metabolites were eluted at a flow rate of 0.5 mL/min with a linear gradient of 2.0%−35% methanol from 1.0−10.0 min. The mass spectrometer was operated in positive mode with electrospray ionization. Data were acquired over the range 50−1200 m/z (mass‐to‐charge ratio) using capillary voltage, 3.5 kV; extraction cone voltage, 4.0 V; source temperature, 120°C; and desolvation temperature, 350°C. A continuous lock mass reference compound, fexofenadine, was sampled at 10‐s intervals for centroid data mass correction. Data were processed with MetaboLynx XS, a component of MassLynx (v. 4.1) software (Waters Corporation).
FFA (1 or 10 µM) was incubated with liver and intestinal S9 fractions (2 mg protein/mL) at 37 ± 1°C in 0.2‐mL incubation mixtures containing potassium phosphate buffer (50 mM, pH 7.4), magnesium chloride (MgCl2) (3 mM), and EDTA (1 mM, pH 7.4), in the presence or absence of a three‐component cofactor mixture (NADPH‐generating system, uridine diphosphate glucuronic acid (UDPGA) [8 mM], and 3’‐phosphoadenosine 5’‐phosphosulfate [0.5 mM]). The NADPH‐generating system consisted of NADP (1 mM, pH 7.4), glucose‐6‐phosphate (5 mM, pH 7.4), and glucose‐6‐phosphate dehydrogenase (1 U/mL). Reactions were initiated by adding the cofactor mix and were stopped at 0, 30, 60, or 120 min by adding an equal volume of acetonitrile. Cofactor controls were incubations performed in parallel in the absence of cofactor for 120 min. Additional incubations were performed with midazolam (10 μM) as a positive control to establish the metabolic competence of test systems. Samples were centrifuged at 920 × g for 10 min at 10°C. Supernatant fractions were analyzed by LC‐MS/MS.
(§2) To characterize substrate loss and metabolic stability, duplicate samples were analyzed by LC‐MS/MS to determine the change in substrate concentration over the incubation period. The rate constant of elimination (kel, min^−1) was determined from the time course of substrate loss based on single exponential decay (A(t)=A0(‐kelt)) . Half‐life in vitro was determined by the following equation: t1/2 = 0.693/kel. The in vitro intrinsic clearance (CLint) was calculated from the rate constant of elimination as follows: CLintμL/min/mgprotein=kelmin^‐1×incubationvolume(μL)/mgproteinperincubation.
(§3) Percent loss of substrate was determined by normalizing the mean analyte peak‐area ratio at each time point to the average of four replicates at the 0‐min time point (100%).

Series [2] is described as follows: Metabolic stability and metabolite identity, dog intestinal S9 fractions. As for the experimental part:
as §1, with “standard. […]” for “standard.”
FFA (1 or 10 µM) was incubated with liver and intestinal S9 fractions (2 mg protein/mL) at 37 ± 1°C in 0.2‐mL incubation mixtures containing potassium phosphate buffer (50 mM, pH 7.4), magnesium chloride (MgCl2) (3 mM), and EDTA (1 mM, pH 7.4), in the presence or absence of a three‐component cofactor mixture (NADPH‐generating system, uridine diphosphate glucuronic acid (UDPGA) [8 mM], and 3’‐phosphoadenosine 5’‐phosphosulfate [0.5 mM]). […] Supernatant fractions were analyzed by LC‐MS/MS.
as §2, §3

Where [3] appears, read: pH 7.4, 1 µM FFA, human liver S9 fractions 2 mg protein/mL, outside assay detection limits.
Where [4] appears, read: intestinal S9 fractions, pH 7.4, 1 µM FFA, dog intestine S9 fractions, outside assay detection limits.

T1 sequence (P10635 whole entry): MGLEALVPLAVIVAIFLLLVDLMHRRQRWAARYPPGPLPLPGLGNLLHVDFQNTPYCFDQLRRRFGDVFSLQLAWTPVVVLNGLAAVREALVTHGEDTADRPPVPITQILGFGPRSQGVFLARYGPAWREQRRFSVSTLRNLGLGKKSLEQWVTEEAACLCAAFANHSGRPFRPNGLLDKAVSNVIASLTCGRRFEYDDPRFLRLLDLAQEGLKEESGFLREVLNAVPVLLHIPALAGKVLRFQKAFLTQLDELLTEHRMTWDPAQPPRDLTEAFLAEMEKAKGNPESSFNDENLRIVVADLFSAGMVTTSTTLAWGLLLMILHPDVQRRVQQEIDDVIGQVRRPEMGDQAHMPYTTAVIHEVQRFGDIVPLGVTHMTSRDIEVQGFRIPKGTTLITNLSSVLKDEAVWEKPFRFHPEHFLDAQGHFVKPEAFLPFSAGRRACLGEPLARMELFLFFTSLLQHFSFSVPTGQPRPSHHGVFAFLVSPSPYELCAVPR

For the compound `CCNC(C)Cc1cccc(C(F)(F)F)c1` (racemic) [FFA, (RS)‐ethyl (α‐methyl‐3‐trifluoromethylphenethyl)amine], on rCYP2D6 (1 μM FFA), the “Disappearance of FFA” value was found to be 97%. Besides, the FFA loss on rCYP2D6 (10 μM FFA) is given as 59%. Besides, the “percent of the drug remaining” value in series [1] (human liver S9, 1 μM FFA with cofactors, 30 min) came out at 1.9%; in series [1] (human liver S9, 1 μM FFA with cofactors, 60 min) it was 11.1%; in series [1] (human liver S9, 1 μM FFA with cofactors, 120 min), 20.9%; in series [1] (human liver S9, 1 μM FFA, absence of the cofactors) it was 21.6%; in series [1] (human liver S9, 10 μM FFA, absence of the cofactors) it was 22.9%. The half-life at 1 µM in series [1] (setting [3]) and in series [2] (setting [4]) was over 2 h in each case. Also, the microsomal CLint at 1 µM in series [1] (setting [3]) and in series [2] (setting [4]) was under 2.9 µL/min/mg throughout. Further, the “percentage of FFA substrate loss at 10 µM relative to 1 µM” value in series [2] (dog intestinal S9 fractions, higher at 10 µM than at 1 µM) is listed as “about 2 fold”.

(Values after paper PMC9124820, “In vitro evaluation of fenfluramine and norfenfluramine as victims of drug interactions” (Pharmacology Research & Perspectives, 2022).)
